Experimental data from US20210309658A1, “ARYL COMPOUNDS FOR THE TREATMENT AND PROPHYLAXIS OF BACTERIAL INFECTION” (Hoffmann-La Roche Inc., priority 2018, published 2021).
≈ marks a conversion by molar mass, not a printed value.

What was measured:
E. coli (BW25113) = assay: 50% growth inhibitory concentration (IC50) determination assay, E. coli; assay type: cell-based; settings: Escherichia coli, BW25113; growth inhibition, Iso-Sensitest broth, OD 600 nm over 16 h; read-out: IC50 (μM) E. coli K12 BW25113
Experimental: (§1) The in vitro antimicrobial activity of the compounds against E. coli (BW25113, obtained from Coli Genetic Stock Center, #7636) and K. pneumoniae (ATCC10031) was determined according to the following procedure:
(§2) The assay used a 10-points Iso-Sensitest broth medium to measure quantitatively the in vitro activity of the compounds against E. coli BW25113 and K. pneumoniae ATCC 10031.
(§3) Stock compounds in DMSO were serially two-fold diluted (range from 50 to 0.097 μM final concentration) in 384 wells microtiter plates and inoculated with 49 μL the bacterial suspension in Iso-Sensitest broth medium to have a final cell concentration of ˜5×10^5 CFU/mL in a final volume/well of 50 μL/well. Microtiter plates were incubated at 35±2° C.
(§4) Bacterial cell growth was determined with the measurement of optical density at λ=600 nm each 20 minutes over a time course of 16 h.
(§5) Growth inhibition was calculated during the logarithmic growth of the bacterial cells with determination of the concentration inhibiting 50% (IC50) of the growth.

[1] = Lyophilisation Solubility Assay (LYSA); assay type: physicochemical; settings: aqueous buffer, thermodynamic from solid; 0.05 M phosphate buffer, pH 6.5; * = detection limit
Experimental: The solubility of compounds of present invention was assessed by LYSA assay. Samples were prepared in duplicate from 10 mM DMSO stock solutions (20 μL) diluted in 30 μL pure DMSO. After evaporation of DMSO with a centrifugal vacuum evaporator, the residue was dissolved in 0.05 M phosphate buffer (150 μL, pH 6.5), stirred for one hour and shook for two hours. After one night, the solution was filtered using a microtiter filter plate. Then the filtrate and its 1/10 dilution were analyzed by HPLC-UV. In addition a four-point calibration curve was prepared from the 10 mM stock solutions and used for the solubility determination of the compounds.

[2] = tested on: K. pneumoniae (ATCC10031); assay: 50% growth inhibitory concentration (IC50) determination assay, K. pneumoniae; assay type: cell-based; settings: Klebsiella pneumoniae, ATCC10031; growth inhibition, Iso-Sensitest broth, OD 600 nm over 16 h; * = detection limit; read-out: IC50 (μM) K. pneumoniae ATCC10031
Experimental: as §1, §2, §3, §4, §5

[3] = Cytotoxicity assay (HepG2, CellTiter-Blue); assay type: cell-based; settings: human; HepG2 cells, 3 days treatment; * = detection limit
Experimental: The cytotoxicity of compounds of present invention was assessed by HepG2 assay. HepG2 cells (ATCC HB-8065™) were seeded into 96-well plates (1.2×10^4 cells per well) and treated with compounds for 3 days, cell viability was measured at day 3 post compound treatment using the CellTiter-Blue® Cell Viability Assay (Promega, Cat. No. G8082). 20 μL of Cell titer blue buffer were added to each well of the cells, incubated for 3 hours at 37° C., and the fluorescence value was measured by a plate reader (Molecular Device SpectraMax M2). The CC50 value of each compound is plotted with GraphPad Prism using four parameter logistic equation.

E. coli (ATCC 25922) = assay: Minimal Inhibitory Concentration (MIC) assay; assay type: cell-based; settings: Escherichia coli, ATCC25922; CAMHB, 20 hours at 35° C.; read-out: MIC (μg/mL) E. coli ATCC 25922
Experimental: The in vitro potency of compounds to inhibit E. coli (ATCC 25922) growth was assessed by MIC (Minimal Inhibitory Concentration) assay. Samples were prepared from 10 mM DMSO stock solutions. After serial 2-fold dilution in DMSO in a master plate (Greiner, Cat No: 651201), 180 μL sterile distilled water was added to 20 μL each aliquot of the samples. Then 10 μL diluted compounds were transferred into a new assay plate (Costar, 3599).
The growth medium […] Mueller Hinton Broth (CAMHB) was prepared by adding the 20 mg per liter CaCl2 and 20 mg per liter MgCl2 into the MHB medium (Jianglai Company, sterilized).
Vials of each of the test microorganisms were maintained frozen in the vapor phase of a liquid nitrogen freezer. Took out the bacteria E. coli ATCC 25922 (KWIKSTIK, 0335K) from liquid nitrogen freezer, thawed it in room temperature, and diluted the bacterial in the CAMHB medium to achieve a final inoculum of 5×10^5 CFU/mL, 90 μL CAMHB with bacteria was dispensed to the assay plate and pipetted 5 times.
Then the assay plates were incubated for 20 hours at 35° C. in ambient air. Following incubation, the MIC (μg/mL), the lowest concentration of drug that inhibits visible growth of the microorganism was read and recorded throw the microscope.

| SMILES | IC50 (E. coli (BW25113)) [µM] | solubility thermodynamic [1] [µg/mL] | IC50 [2] [µM] | CC50 at 3 days [3] [µM] | MIC (E. coli (ATCC 25922)) [µg/mL] |
| --- | --- | --- | --- | --- | --- |
| CCNc1cc(F)cc2c1[nH]c1ncc(-c3cncc(CN)c3)c(-n3ccc(C(F)(F)F)n3)c12 [Example 1.45, 3-[5-(Aminomethyl)-3-pyridyl]-N-ethyl-6-fluoro-4-[3-(trifluoromethyl)pyrazol-1-yl]-9H-pyrido[2,3-b]indol-8-amine] | 2.04 | 16 (≈ 34.1 µM) | ≤ 0.098 | – | – |
| CNc1cc(F)cc2c1[nH]c1nc(Oc3cnc(C)nc3)nc(N3C[C@H]4C[C@@H]3C[C@H]4N)c12 [GP-6, reference compound] | 0.17 | < 1 | ≤ 0.098 | 5.6 | 0.127 (≈ 0.292 µM) |
| CCNc1cc(F)cc2c1[nH]c1ncc(-c3cnc(OC)nc3)c(-n3nc(C#N)c4c3CNCC4)c12 [Example 1.39, 1-[8-(Ethylamino)-6-fluoro-3-(2-methoxypyrimidin-5-yl)-9H-pyrido[2,3-b]indol-4-yl]-4,5,6,7-tetrahydropyrazolo[3,4-c]pyridine-3-carbonitrile] | 2.37 | 42 (≈ 86.9 µM) | ≤ 0.098 | 49 | – |
| CCNc1cc(F)cc2c1[nH]c1ncc(-c3cnc(OC4CCNCC4)nc3)c(-n3ccc(C(F)(F)F)n3)c12 [Example 1.53, N-ethyl-6-fluoro-3-[2-(4-piperidyloxy)pyrimidin-5-yl]-4-[3-(trifluoromethyl)pyrazol-1-yl]-9H-pyrido[2,3-b]indol-8-amine] | 1.29 | 21 (≈ 38.9 µM) | 0.121 | – | – |
| CCNc1cc(F)cc2c1[nH]c1ncc(-c3cnc(C4(C(=O)O)CC4)nc3)c(-n3ccc(C(F)(F)F)n3)c12 [Example 2.01, 1-[5-[8-(Ethylamino)-6-fluoro-4-[3-(trifluoromethyl)pyrazol-1-yl]-9H-pyrido[2,3-b]indol-3-yl]pyrimidin-2-yl]cyclopropanecarboxylic Acid] | – | 67 (≈ 128 µM) | – | 38.6 | – |
| CCNc1cc(F)cc2c1[nH]c1ncc(-c3cnc(NC4CCNC4)nc3)c(-n3ccc(C(F)(F)F)n3)c12 (centres unmarked) [Example 1.24, N-Ethyl-6-fluoro-3-[2-(pyrrolidin-3-ylamino)pyrimidin-5-yl]-4-[3-(trifluoromethyl)pyrazol-1-yl]-9H-pyrido[2,3-b]indol-8-amine] | – | 8.3 (≈ 15.8 µM) | – | 11.8 | – |
| CNc1c(F)c(F)cc2c1[nH]c1ncc(-c3cncc(C#N)c3)c(-n3cc(CN)c(C(F)(F)F)n3)c12 [Example 1.49, 5-[4-[4-(Aminomethyl)-3-(trifluoromethyl)pyrazol-1-yl]-6,7-difluoro-8-(methylamino)-9H-pyrido[2,3-b]indol-3-yl]pyridine-3-carbonitrile] | 0.698 | 14 (≈ 28.1 µM) | 0.098 | 12.8 | 0.359 (≈ 0.72 µM) |
| CCNc1cc(F)cc2c1[nH]c1ncc(-c3cnc(CN)nc3)c(-n3ccc(C(F)(F)F)n3)c12 [Example 1.46, 3-[2-(Aminomethyl)pyrimidin-5-yl]-N-ethyl-6-fluoro-4-[3-(trifluoromethyl)pyrazol-1-yl]-9H-pyrido[2,3-b]indol-8-amine] | 0.77 | 23 (≈ 48.9 µM) | ≤ 0.098 | 27.4 | – |
| CNc1cc(F)cc2c1[nH]c1ncc(-c3cnc(C4(C(=O)O)CC4)nc3)c(-n3ccc(C(F)(F)F)n3)c12 [Example 2.02, 1-[5-[6-Fluoro-8-(methylamino)-4-[3-(trifluoromethyl)pyrazol-1-yl]-9H-pyrido[2,3-b]indol-3-yl]pyrimidin-2-yl]cyclopropanecarboxylic acid] | 1.67 | 148 (≈ 289 µM) | 0.254 | 62.6 | – |
| CCNc1cc(F)cc2c1[nH]c1ncc(-c3cnc(NCC(C)(C)C(=O)O)nc3)c(-n3ccc(C(F)(F)F)n3)c12 [Example 2.05, 3-[[5-[8-(Ethylamino)-6-fluoro-4-[3-(trifluoromethyl)pyrazol-1-yl]-9H-pyrido[2,3-b]indol-3-yl]pyrimidin-2-yl]amino]-2,2-dimethyl-propanoic acid] | – | 24 (≈ 43.1 µM) | – | 27.6 | – |
| CCNc1cc(F)cc2c1[nH]c1ncc(-c3cncc(Cc4n[nH]c(=O)o4)c3)c(-n3ccc(C(F)(F)F)n3)c12 [Example 6.01, 5-[[5-[8-(ethylamino)-6-fluoro-4-[3-(trifluoromethyl)pyrazol-1-yl]-9H-pyrido[2,3-b]indol-3-yl]-3-pyridyl]methyl]-3H-1,3,4-oxadiazol-2-one] | 0.827 | – | 0.441 | 11.4 | 0.731 (≈ 1.36 µM) |
| CCNc1cc(F)cc2c1[nH]c1ncc(-c3cncc(C#N)c3)c(-n3cc(CN)c(C(F)(F)F)n3)c12 [Example 1.26, 5-[4-[4-(Aminomethyl)-3-(trifluoromethyl)pyrazol-1-yl]-8-(ethylamino)-6-fluoro-9H-pyrido[2,3-b]indol-3-yl]pyridine-3-carbonitrile] | 0.374 | 32.5 (≈ 65.7 µM) | ≤ 0.098 | – | 0.618 (≈ 1.25 µM) |
| CNc1cc(F)cc2c1[nH]c1ncc(-c3cncc(C#N)c3)c(-n3cc(C#N)cn3)c12 [Example 1.09, 5-[4-(4-Cyanopyrazol-1-yl)-6-fluoro-8-(methylamino)-9H-pyrido[2,3-b]indol-3-yl]pyridine-3-carbonitrile] | 0.346 | – | ≤ 0.098 | 14.6 | 0.153 (≈ 0.375 µM) |
| CCNc1cc(F)cc2c1[nH]c1ncc(-c3cnc(NC4CCNCC4)nc3)c(-n3ccc(C(F)(F)F)n3)c12 [Example 1.10, N-Ethyl-6-fluoro-3-[2-(4-piperidylamino)pyrimidin-5-yl]-4-[3-(trifluoromethyl)pyrazol-1-yl]-9H-pyrido[2,3-b]indol-8-amine] | – | 7.6 (≈ 14.1 µM) | – | – | – |
